Experimental data taken from ChEMBL document CHEMBL1201862, “PubChem BioAssay data set” (2004).
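Assay format: 96-well plates, 48-hour exposure. The concentration for 50% growth inhibition is given as GI50.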 Calls of active or inactive are those of the source. No stated cut-off is given here; in the data, active = GI50 up to about 1.1 µM and inactive = higher.

What was measured:
Assay in all cases: NCI anticancer screen, dose series, 48 h
EKVX = test system: EKVX
HCT-116 = test system: HCT-116
NCI-H23 = test system: NCI-H23
NCI-H226 = test system: NCI-H226
SN12C = test system: SN12C
UACC-257 = test system: UACC-257
Malme-3M = test system: Malme-3M
OVCAR-8 = test system: OVCAR-8
A549 = test system: A549
SK-MEL-28 = test system: SK-MEL-28
HOP-62 = test system: HOP-62
UACC-62 = test system: UACC-62
SK-OV-3 = test system: SK-OV-3
IGROV-1 = test system: IGROV-1
RXF 393 = test system: RXF 393

| SMILES | GI50 (EKVX) | GI50 (HCT-116) | GI50 (NCI-H23) | GI50 (NCI-H226) | GI50 (SN12C) | GI50 (UACC-257) | GI50 (Malme-3M) | GI50 (OVCAR-8) | GI50 (A549) | GI50 (SK-MEL-28) | GI50 (HOP-62) | GI50 (UACC-62) | GI50 (SK-OV-3) | GI50 (IGROV-1) | GI50 (RXF 393) |
| --- | --- | --- | --- | --- | --- | --- | --- | --- | --- | --- | --- | --- | --- | --- | --- |
| Cc1cc(N)c(C)c2c1[nH]c1ccc(O)cc12 | > 100 µM (inactive) | > 100 µM (inactive) | > 100 µM (inactive) | > 100 µM (inactive) | > 100 µM (inactive) | > 100 µM (inactive) | > 100 µM (inactive) | 88.5 µM (inactive) | > 100 µM (inactive) | > 100 µM (inactive) | > 100 µM (inactive) |  |  |  |  |
| CN1C2(c3ccccc3)c3c(-c4ccccc4)sc(-c4ccccc4)c3C1(c1ccccc1)C1C(=O)N(c3ccccc3)C(=O)C12 (centres undefined) | > 100 µM (inactive) | > 100 µM (inactive) | > 100 µM (inactive) | > 100 µM (inactive) | > 100 µM (inactive) | > 100 µM (inactive) | > 100 µM (inactive) | > 100 µM (inactive) | > 100 µM (inactive) | > 100 µM (inactive) | > 100 µM (inactive) | > 100 µM (inactive) | > 100 µM (inactive) | > 100 µM (inactive) | > 100 µM (inactive) |
| O=C1C2ON3c4ccccc4C(=O)C3(c3ccccc3)C2C(=O)N1c1ccccc1 (centres undefined) | > 100 µM (inactive) | > 100 µM (inactive) | > 100 µM (inactive) | > 100 µM (inactive) | > 100 µM (inactive) | > 100 µM (inactive) | > 100 µM (inactive) | > 100 µM (inactive) | > 100 µM (inactive) | > 100 µM (inactive) | > 100 µM (inactive) | > 100 µM (inactive) | > 100 µM (inactive) | > 100 µM (inactive) | > 100 µM (inactive) |
| Cc1c(-c2nnc(-c3ccccc3)o2)c(=O)n(-c2ccccc2)n1C | > 100 µM (inactive) | > 100 µM (inactive) | > 100 µM (inactive) | > 100 µM (inactive) | > 100 µM (inactive) | > 100 µM (inactive) | > 100 µM (inactive) | > 100 µM (inactive) | > 100 µM (inactive) | > 100 µM (inactive) | > 100 µM (inactive) | > 100 µM (inactive) | > 100 µM (inactive) | > 100 µM (inactive) | > 100 µM (inactive) |
| CC(=O)NNc1nc(C)c(C(=O)/C=C/c2ccc(Cl)c(Cl)c2)s1 | > 100 µM (inactive) |  | > 100 µM (inactive) |  | > 100 µM (inactive) | > 100 µM (inactive) | > 100 µM (inactive) | > 100 µM (inactive) | > 100 µM (inactive) | > 100 µM (inactive) | > 100 µM (inactive) | > 100 µM (inactive) | > 100 µM (inactive) | > 100 µM (inactive) | > 100 µM (inactive) |
| On1c(-c2ccccc2)c(-c2ccccc2N2CCCC2)c2ccccc21 | > 100 µM (inactive) | > 100 µM (inactive) | > 100 µM (inactive) | > 100 µM (inactive) | > 100 µM (inactive) | > 100 µM (inactive) | > 100 µM (inactive) | > 100 µM (inactive) | > 100 µM (inactive) | > 100 µM (inactive) | > 100 µM (inactive) | > 100 µM (inactive) | > 100 µM (inactive) | > 100 µM (inactive) |  |
| CC(=O)O[C@H]1C(=O)[C@@]2(C)C(C(OC(=O)c3ccccc3)[C@]3(O)CC(OC(=O)C(O)C(NC(=O)c4ccc(C)cc4)c4ccccc4)C(C)=C1C3(C)C)[C@]1(OC(C)=O)CO[C@@H]1C[C@@H]2O (some centres undefined) | 0.111 µM (active) | < 0.0025 µM (active) | 0.00785 µM (active) |  | 0.0112 µM (active) | 0.00708 µM (active) | 0.0043 µM (active) | 0.00426 µM (active) | 0.00504 µM (active) |  | 0.00986 µM (active) | 0.0199 µM (active) | < 0.0025 µM (active) | < 0.0025 µM (active) | 0.00628 µM (active) |
| CN(C)/C=N\c1cc[nH]c(=O)n1 | > 100 µM (inactive) | > 100 µM (inactive) |  | > 100 µM (inactive) | > 100 µM (inactive) | > 100 µM (inactive) | > 100 µM (inactive) | > 100 µM (inactive) | > 100 µM (inactive) | > 100 µM (inactive) | > 100 µM (inactive) | > 100 µM (inactive) | > 100 µM (inactive) | > 100 µM (inactive) | > 100 µM (inactive) |
| O=c1ccccc2cccc(O)c12 | 94.2 µM (inactive) | > 100 µM (inactive) | > 100 µM (inactive) |  | > 100 µM (inactive) | > 100 µM (inactive) |  | > 100 µM (inactive) | > 100 µM (inactive) | > 100 µM (inactive) | > 100 µM (inactive) | > 100 µM (inactive) | > 100 µM (inactive) | > 100 µM (inactive) | > 100 µM (inactive) |
| CC(=O)OC(C)(C)C1CCC(C)(C(O)COc2ccc(CCNC(=O)c3ccccc3)cc2)O1 (centres undefined) |  | 28.8 µM (inactive) | > 100 µM (inactive) |  | > 100 µM (inactive) | > 100 µM (inactive) | 63.5 µM (inactive) | 47.5 µM (inactive) | 51.1 µM (inactive) | 79.8 µM (inactive) | 43.2 µM (inactive) | 30.8 µM (inactive) | > 100 µM (inactive) | > 100 µM (inactive) | 6.68 µM (inactive) |
| CCOC(=O)C(=O)Nc1c(N(CC)CC)n2ccccc2nc1=O | > 100 µM (inactive) | > 100 µM (inactive) | > 100 µM (inactive) | > 100 µM (inactive) | > 100 µM (inactive) |  | > 100 µM (inactive) | > 100 µM (inactive) | > 100 µM (inactive) |  | > 100 µM (inactive) | > 100 µM (inactive) | > 100 µM (inactive) | > 100 µM (inactive) |  |
| Cc1cc2c(c(C(N)=O)c1C)-c1cccc(Cl)c1C2=O | > 100 µM (inactive) | > 100 µM (inactive) | > 100 µM (inactive) |  | > 100 µM (inactive) | > 100 µM (inactive) | > 100 µM (inactive) | > 100 µM (inactive) | > 100 µM (inactive) | > 100 µM (inactive) | > 100 µM (inactive) | > 100 µM (inactive) | > 100 µM (inactive) | > 100 µM (inactive) |  |
| O=c1ccn([C@H]2CSC[C@@H](CO)C2)c(=O)[nH]1 | > 100 µM (inactive) | > 100 µM (inactive) | > 100 µM (inactive) | > 100 µM (inactive) | > 100 µM (inactive) | > 100 µM (inactive) | > 100 µM (inactive) | > 100 µM (inactive) | > 100 µM (inactive) | > 100 µM (inactive) | > 100 µM (inactive) | > 100 µM (inactive) | > 100 µM (inactive) | > 100 µM (inactive) |  |
| COC(=O)/C(=C/c1ccc(OC)cc1)C(C(=O)O)=C1CCCCC1 | > 100 µM (inactive) | > 100 µM (inactive) | > 100 µM (inactive) | > 100 µM (inactive) | > 100 µM (inactive) | > 100 µM (inactive) |  | > 100 µM (inactive) | > 100 µM (inactive) |  | > 100 µM (inactive) | > 100 µM (inactive) | > 100 µM (inactive) | > 100 µM (inactive) | > 100 µM (inactive) |
| Cc1ccc(NC(=O)CC2C(=O)Nc3ccccc3S2(=O)=O)cc1C (centres undefined) | > 100 µM (inactive) | > 100 µM (inactive) | > 100 µM (inactive) | > 100 µM (inactive) | > 100 µM (inactive) | > 100 µM (inactive) | > 100 µM (inactive) | > 100 µM (inactive) | > 100 µM (inactive) | > 100 µM (inactive) |  | 84.7 µM (inactive) |  | > 100 µM (inactive) | > 100 µM (inactive) |
| CC[n+]1c(/C=C/c2cc(C(=O)OC)n3c2sc2ccccc23)sc2ccccc21 | 20.7 µM (inactive) | 14.5 µM (inactive) |  | 23 µM (inactive) | 23.1 µM (inactive) | 17.3 µM (inactive) | 16.7 µM (inactive) |  | 18.8 µM (inactive) |  | 0.434 µM (active) | 0.394 µM (active) | 17.9 µM (inactive) | 16.9 µM (inactive) |  |
| COc1ccc(OCC(=O)O)c2c1CCC(C)C2=O (centres undefined) | > 100 µM (inactive) | > 100 µM (inactive) |  |  | > 100 µM (inactive) | > 100 µM (inactive) | > 100 µM (inactive) | > 100 µM (inactive) | > 100 µM (inactive) | > 100 µM (inactive) | > 100 µM (inactive) | > 100 µM (inactive) | > 100 µM (inactive) | > 100 µM (inactive) |  |
| CCCCCCC1CCC2CCCC(C)N12 (centres undefined) | > 100 µM (inactive) | 51.1 µM (inactive) | 34.4 µM (inactive) | > 100 µM (inactive) | 95.9 µM (inactive) | 37.9 µM (inactive) | > 10 µM (inactive) | 45.6 µM (inactive) | 77.1 µM (inactive) | 53.6 µM (inactive) | > 100 µM (inactive) | > 100 µM (inactive) |  |  |  |
| CS(=O)(=O)c1ccc(-c2cc(-c3ccc(S(C)(=O)=O)cc3)[n+](-c3cc(-c4ccccc4)c([O-])c(-c4ccccc4)c3)c(-c3ccc(S(C)(=O)=O)cc3)c2)cc1 | > 100 µM (inactive) | > 100 µM (inactive) | > 100 µM (inactive) | > 100 µM (inactive) | > 100 µM (inactive) | 38.5 µM (inactive) | > 100 µM (inactive) | > 100 µM (inactive) | > 100 µM (inactive) | > 100 µM (inactive) | > 100 µM (inactive) | > 100 µM (inactive) |  | > 100 µM (inactive) | > 100 µM (inactive) |
| COc1cc(C2C(Cl)C(=O)N2NC(=O)c2ccc(N)cc2)ccc1O (centres undefined) | 92 µM (inactive) | 22.9 µM (inactive) | 20.9 µM (inactive) | 95.7 µM (inactive) | 32 µM (inactive) | > 100 µM (inactive) | 16.5 µM (inactive) | 21.5 µM (inactive) | > 100 µM (inactive) | 39.2 µM (inactive) | 35.9 µM (inactive) | 64.1 µM (inactive) | 60.5 µM (inactive) | 56.8 µM (inactive) |  |
